From US11926612B2, “Heterocyclic apelin receptor (APJ) agonists and uses thereof” (Research Triangle Institute, priority 2016, dated 2024)

The compounds below were run against T1, apelin receptor (APJ) (Homo sapiens, UniProt P35414) (assay: in vitro activity as apelin agonists (methods of Giddings et al.; Apelin-13 positive control)). Conditions: apelin agonist activity, average; read-out: EC50 (nM) Ave.
T1 sequence (P35414 1-380): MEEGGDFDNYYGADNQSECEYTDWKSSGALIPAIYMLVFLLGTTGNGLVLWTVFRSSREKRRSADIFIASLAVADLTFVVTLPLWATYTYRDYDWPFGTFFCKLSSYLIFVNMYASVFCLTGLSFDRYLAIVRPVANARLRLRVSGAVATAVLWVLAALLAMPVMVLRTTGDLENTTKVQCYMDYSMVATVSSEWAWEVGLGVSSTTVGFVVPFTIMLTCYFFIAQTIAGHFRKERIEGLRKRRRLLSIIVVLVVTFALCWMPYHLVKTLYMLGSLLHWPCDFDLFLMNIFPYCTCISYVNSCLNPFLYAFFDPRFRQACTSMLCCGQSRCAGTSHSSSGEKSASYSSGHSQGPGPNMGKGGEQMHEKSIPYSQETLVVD
Format: cell-based
Excerpt: The compounds above were studied for their in vitro activity as apelin agonists using the methods described by Giddings et al. Giddings et al., 2010 Int J High Thro Screen. 1:39-47, the contents of which are hereby incorporated by reference in its entirety. The methods described in Giddings et al. were used as described and Apelin-13 was a positive control.

Structure (SMILES)	EC50
O=C(C[C@H](CCN1CCCCC1)NC(=O)c1nc(-c2ccccc2C(F)(F)F)n(C2CCCC2)n1)NC1CCC1 [compound 446, (3S)-N-cyclobutyl-3-({1-cyclopentyl-5-[2-(trifluoromethyl)phenyl]-1H-1,2,4-triazol-3-yl}formamido)-5-(piperidin-1-yl)pentanamide]	310 nM
CN(C(=O)C[C@H](CCN1CCCC(F)(F)C1)NC(=O)c1nc(-c2ccccc2C(F)(F)F)n(C2CCCC2)n1)c1nccs1 [compound 456, (3S)-3-({1-cyclopentyl-5-[2-(trifluoromethyl)phenyl]-1H-1,2,4-triazol-3-yl}formamido)-5-(3,3-difluoropiperidin-1-yl)-N-methyl-N-(1,3-thiazol-2-yl)pentanamide]	48 nM
O=C(O)C[C@H](CCN1CCCC(F)(F)C1)NC(=O)c1nc(-c2ccccc2C(F)(F)F)n(C2CCCC2)n1 [compound 462, (3S)-3-({1-cyclopentyl-5-[2-(trifluoromethyl)phenyl]-1H-1,2,4-triazol-3-yl}formamido)-5-(3,3-difluoropiperidin-1-yl)pentanoic acid]	384 nM
CN(C(=O)C[C@H](CCN1CCCC(F)(F)C1)N(C)C(=O)c1nc(C2CCCC2)n(-c2ccccc2C(F)(F)F)n1)c1nccs1 [compound 474, (3S)-3-(1-{5-cyclopentyl-1-[2-(trifluoromethyl)phenyl]-1H-1,2,4-triazol-3-yl}-N-methylformamido)-5-(3,3-difluoropiperidin-1-yl)-N-methyl-N-(1,3-thiazol-2-yl)pentanamide]	588 nM
CC(C)Cc1c(-c2ccccc2Cl)nc(C(=O)N[C@@H](CCN2CCCC(F)(F)C2)CC(=O)O)n1C [compound 476, (3S)-3-{[4-(2-chlorophenyl)-1-methyl-5-(2-methylpropyl)-1H-imidazol-2-yl]formamido}-5-(3,3-difluoropiperidin-1-yl)pentanoic acid]	> 10000 nM
CC(C)Cc1c(-c2ccccc2Cl)nc(C(=O)N[C@@H](CCN2CCCC(F)(F)C2)CC(=O)N(C)c2nccs2)n1C [compound 477, (3S)-3-{[4-(2-chlorophenyl)-1-methyl-5-(2-methylpropyl)-1H-imidazol-2-yl]formamido}-5-(3,3-difluoropiperidin-1-yl)-N-methyl-N-(1,3-thiazol-2-yl)pentanamide]	> 10000 nM
CC(C)Cc1c(-c2ccccc2Cl)nc(C(=O)N[C@@H](CCN2CCCC(F)(F)C2)CC(=O)NC2CCC2)n1C [compound 478, (3S)-3-{[4-(2-chlorophenyl)-1-methyl-5-(2-methylpropyl)-1H-imidazol-2-yl]formamido}-N-cyclobutyl-5-(3,3-difluoropiperidin-1-yl)pentanamide]	> 10000 nM
O=C(O)C[C@H](CCN1CCCC(F)(F)C1)NC(=O)c1nc(-c2ncccc2C(F)(F)F)n(C2CCCC2)n1 [compound 512, (3S)-3-({1-cyclopentyl-5-[3-(trifluoromethyl)pyridin-2-yl]-1H-1,2,4-triazol-3-yl}formamido)-5-(3,3-difluoropiperidin-1-yl)pentanoic acid]	152 nM
O=C(O)C[C@H](CCN1CCCC(F)(F)C1)NC(=O)c1nc(C2CCCC2)n(-c2cccnc2C(F)(F)F)n1 [compound 513, (3S)-3-({5-cyclopentyl-1-[2-(trifluoromethyl)pyridin-3-yl]-1H-1,2,4-triazol-3-yl}formamido)-5-(3,3-difluoropiperidin-1-yl)pentanoic acid]	> 10000 nM
O=C(C[C@H](CCN1CCCC(F)(F)C1)NC(=O)c1nc(C2CCCC2)n(-c2cccnc2C(F)(F)F)n1)NC1CCC1 [compound 531, (3S)-N-cyclobutyl-3-({5-cyclopentyl-1-[2-(trifluoromethyl)pyridin-3-yl]-1H-1,2,4-triazol-3-yl}formamido)-5-(3,3-difluoropiperidin-1-yl)pentanamide]	323 nM
O=C(C[C@H](CCN1CCCC(F)(F)C1)NC(=O)c1nc(-c2cccnc2C(F)(F)F)n(C2CCCC2)n1)NC1CCC1 [compound 532, (3S)-N-cyclobutyl-3-({1-cyclopentyl-5-[2-(trifluoromethyl)pyridin-3-yl]-1H-1,2,4-triazol-3-yl}formamido)-5-(3,3-difluoropiperidin-1-yl)pentanamide]	2540 nM
COCCN(C)C(=O)[C@H](CCc1ccccc1)NC(=O)c1nc(C2CCCC2)n(-c2ccccc2C(F)(F)F)n1 [compound 543, (2S)-2-({5-cyclopentyl-1-[2-(trifluoromethyl)phenyl]-1H-1,2,4-triazol-3-yl}formamido)-N-(2-methoxyethyl)-N-methyl-4-phenylbutanamide]	754 nM
COCCN(C)C(=O)[C@H](CCc1ccccc1)NC(=O)c1nc(-c2ccccc2C(F)(F)F)n(C2CCCC2)n1 [compound 569, (2S)-2-({1-cyclopentyl-5-[2-(trifluoromethyl)phenyl]-1H-1,2,4-triazol-3-yl}formamido)-N-(2-methoxyethyl)-N-methyl-4-phenylbutanamide]	> 10000 nM
O=C(O)C[C@H](CCN1CCC(F)(F)C1)NC(=O)c1nc(C2CCCC2)n(-c2ccccc2C(F)(F)F)n1 [compound 586, (3S)-3-({5-cyclopentyl-1-[2-(trifluoromethyl)phenyl]-1H-1,2,4-triazol-3-yl}formamido)-5-(3,3-difluoropyrrolidin-1-yl)pentanoic acid]	74 nM

The next compounds have a lower EC50 than those just listed; values first:

EC50	Structure (SMILES)
46 nM	CN(C(=O)C[C@H](CCN1CCCC(F)(F)C1)NC(=O)c1cn(-c2ccccc2C(F)(F)F)c(C2CCCC2)n1)c1nccs1 [compound 473, (3S)-3-({2-cyclopentyl-1-[2-(trifluoromethyl)phenyl]-1H-imidazol-4-yl}formamido)-5-(3,3-difluoropiperidin-1-yl)-N-methyl-N-(1,3-thiazol-2-yl)pentanamide]
40 nM	O=C(C[C@H](CCN1CCCCC1)NC(=O)c1nc(C2CCCC2)n(-c2ccccc2C(F)(F)F)n1)NC1CCC1 [compound 444, (3S)-N-cyclobutyl-3-({5-cyclopentyl-1-[2-(trifluoromethyl)phenyl]-1H-1,2,4-triazol-3-yl}formamido)-5-(piperidin-1-yl)pentanamide]
22 nM	CN(C(=O)C[C@H](CCN1CCCC(F)(F)C1)NC(=O)c1nc(C2CCCC2)n(-c2ccccc2C(F)(F)F)n1)c1nccs1 [compound 455, (3S)-3-({5-cyclopentyl-1-[2-(trifluoromethyl)phenyl]-1H-1,2,4-triazol-3-yl}formamido)-5-(3,3-difluoropiperidin-1-yl)-N-methyl-N-(1,3-thiazol-2-yl)pentanamide]
13 nM	O=C(O)C[C@H](CCN1CCCC(F)(F)C1)NC(=O)c1cn(-c2ccccc2C(F)(F)F)c(C2CCCC2)n1 [compound 617, (3S)-3-({2-cyclopentyl-1-[2-(trifluoromethyl)phenyl]-1H-imidazol-4-yl}formamido)-5-(3,3-difluoropiperidin-1-yl)pentanoic acid]
9 nM	O=C(C[C@H](CCN1CCCC(F)(F)C1)NC(=O)c1nc(-c2ccccc2C(F)(F)F)n(C2CCCC2)n1)NC1CCC1 [compound 453, (3S)-N-cyclobutyl-3-({1-cyclopentyl-5-[2-(trifluoromethyl)phenyl]-1H-1,2,4-triazol-3-yl}formamido)-5-(3,3-difluoropiperidin-1-yl)pentanamide]
8.3 nM	O=C(C[C@H](CCN1CCCC(F)(F)C1)NC(=O)c1nc(C2CCCC2)n(-c2ccccc2C(F)(F)F)n1)NC1CCC1 [compound 454, (3S)-N-cyclobutyl-3-({5-cyclopentyl-1-[2-(trifluoromethyl)phenyl]-1H-1,2,4-triazol-3-yl}formamido)-5-(3,3-difluoropiperidin-1-yl)pentanamide]
8 nM	O=C(N[C@@H](CCN1CCCC(F)(F)C1)Cc1nnn[nH]1)c1cn(-c2ccccc2C(F)(F)F)c(C2CCCC2)n1 [compound 620]
